According to PubChem BioAssay (NCI):
Values joined by “and” are separate entries in the source; they are usually repeats but may differ in a detail not shown here. Equal values may be shown once.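 Cultured in 96-well plates, cells were exposed to test compound for 48 hours across five concentrations. At the GI50, growth is halved. TGI: total growth inhibition.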

Key:
Experiment in all cases: NCI anticancer screen, dose series, 48 h
[1] = system: A549 NSCLC
[2] = system: ACHN renal
[3] = system: HS 578T breast
[4] = system: LOX IMVI melanoma
[5] = system: MDA-MB-435
[6] = system: MOLT-4 leukemia
[7] = system: UACC-62 melanoma
[8] = system: HT29 colon

Row | Compound | GI50 [1] [µM] | TGI [1] [µM] | GI50 [2] [µM] | TGI [2] | GI50 [3] [µM] | TGI [3] [µM] | GI50 [4] [µM] | TGI [4] [µM] | GI50 [5] [µM] | TGI [5] [µM] | GI50 [6] [µM] | TGI [6] [µM] | GI50 [7] [µM] | TGI [7] | GI50 [8] [µM] | TGI [8] [µM]
1 | O=C1/C(=C/c2ccc([N+](=O)[O-])s2)Oc2ccc(Br)cc21 | 0.376 | 1.68 | 0.199 | 0.414 µM | 0.448 | > 100 | 0.209 | 0.486 | 0.397 | 1.78 | 0.461 | 3.82 | 0.297 | 0.963 µM | – | –
2 | O=C1c2ccccc2-n2c1nc1ccc([N+](=O)[O-])cc1c2=O | – | > 100 | – | > 100 µM | – | > 100 | – | 51.7 | – | – | – | > 100 | – | > 100 µM | – | –
3 | O=C(Nc1cccc2[nH]c(C(F)(F)F)nc12)c1ccc(Br)cc1F | 3.27 | 13.3 | 3.08 | 11.1 µM | 3.54 | 22.8 | 3.78 | 12.5 | 3.33 | 12.1 | 3.83 | 23.3 | 3.26 | 13.5 µM | – | –
4 | C[C@H]1CCC/C=C/[C@@H]2C[C@H](O)C[C@H]2[C@H](O)C(O)C(O)C(=O)O1 (some centres undefined) | 4.54 | > 100 | 3.43 | 20.9 µM | 0.702 | > 100 | – | – | 3.74 | > 100 | 0.906 | 4.56 | 1.07 | – | 1.24 | 17.9
5 | CC(C)C[C@H](NC(=O)[C@@H](N)Cc1cccc2ccccc12)B(O)O | 0.926 | – | < 0.01 | 50 µM and > 100 µM | – | – | 0.184 | – | 0.114 | – | 0.21 | – | 0.425 | 1.28 µM and 0.148 µM | 0.216 | –
6 | CCOC(=O)CCC(NC(=O)c1ccc(Oc2nc3cc(N)cc(N)c3nc2-c2ccccc2)cc1)C(=O)OCC (centres undefined) | > 100 | > 100 | 28.5 | > 100 µM | 43.7 | > 100 | 11.9 | 26.1 | 30.2 | > 100 | 39 | > 100 | 16.1 | 31 µM | – | –
7 | O=C1CC[C@@H]2[C@H]3CCC(=O)c4c3c(c3cccc(O)c3c4O)O[C@@]23C(=O)c2cccc(O)c2C(O)=C13 | > 100 | > 100 | > 100 | > 100 µM | > 100 | > 100 | > 100 | > 100 | – | – | > 100 | > 100 | > 100 | > 100 µM | > 100 | > 100
8 | CN(COC(=O)C(C)(C)C)c1nc(N(C)COC(=O)C(C)(C)C)nc(N(C)COC(=O)C(C)(C)C)n1 | – | > 100 | – | > 100 µM | – | > 100 | – | – | – | – | – | > 100 | – | – | – | > 100
9 | Cc1c(C(=O)Nc2ccc(Oc3ccnc4cc(OCC(C)(C)O)ccc34)c(F)c2)c(=O)n(-c2ccccc2)n1C | – | – | – | – | 3.04 | > 100 | – | – | – | – | – | – | – | – | 2.29 | > 100
10 | Cc1nc2ccccc2c(/C=C/c2ccc(C(F)(F)F)cc2)c1C(=O)/C=C/c1ccccc1 | 1.79 | 4.73 | 1.54 | 2.87 µM | 1.92 | 5.75 | 1.58 | 2.94 | – | – | 0.508 | 5.79 | 1.49 | 3 µM | 1.04 | 6.05
11 | Cc1ccc(S(=O)(=O)NC(=O)Nc2ncn[nH]2)cc1 | – | > 100 | – | > 100 µM | – | > 100 | – | – | – | > 100 | – | > 100 | – | > 100 µM | – | > 100
12 | O=C(/C=C/c1cccc(Cl)c1)c1ccccc1 | 14.9 | 29.3 | 10.5 | 23.3 µM | 2.1 | 7.45 | 3.06 | 10.8 | 2 | 5.43 | 4.07 | 36.4 | 13.9 | 27.9 µM | – | –
13 | CC(C)(C)c1ccc(OCCCCCCCN2CCNCC2)cc1 | 1.72 | 3.6 | – | – | 1.92 | 4.77 | 1.52 | 3.06 | 1.57 | 2.98 | 1.7 | 3.71 | 1.88 | 3.6 µM | – | –
14 | COC(=O)C(C(=O)C(=O)Nc1nc2ccc(OC)cc2s1)c1cnc2ccccc2n1 (centres undefined) | – | > 100 | – | > 100 µM | – | – | – | > 100 | – | – | – | > 100 | – | > 100 µM | – | > 100
15 | COc1ccc(/C(=N/O)c2cc(F)c(F)c(OC)c2F)cc1O | 1.06 | > 100 | 0.94 | > 100 µM | 0.938 | > 100 | 0.605 | > 100 | – | – | 0.43 | 30 | – | – | 3.6 | 65.4
16 | O=C1OC(=O)c2c1cc1cc3c(cc1c2-c1ccc2c(c1)OCO2)OCO3 | – | > 100 | – | > 100 µM | – | – | – | – | – | > 100 | – | > 100 | – | > 100 µM | – | > 100
